The text below walks through data of US11186592B2, “Thiazolopyridine derivatives as adenosine receptor antagonists” (MERCK PATENT GMBH, priority 2017, dated 2021).

Holding throughout (type): cell-based
One experiment deals with T1, human A3 receptor (Homo sapiens, UniProt P0DMS8).
T1 construct: expressed in transfected cells; host or cells: CHO
T1 sequence (P0DMS8 1-318): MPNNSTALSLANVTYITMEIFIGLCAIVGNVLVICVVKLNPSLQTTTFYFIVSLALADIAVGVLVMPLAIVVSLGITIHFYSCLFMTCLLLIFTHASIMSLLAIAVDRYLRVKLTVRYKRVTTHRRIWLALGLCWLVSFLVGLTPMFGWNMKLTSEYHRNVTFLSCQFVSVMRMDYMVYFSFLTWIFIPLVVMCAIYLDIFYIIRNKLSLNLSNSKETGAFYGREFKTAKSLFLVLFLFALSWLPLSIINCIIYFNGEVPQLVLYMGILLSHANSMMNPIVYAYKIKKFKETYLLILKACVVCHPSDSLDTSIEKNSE
In words: cAMP (HTRF) functional assay, recombinant CHO cells expressing human A3 receptor, forskolin + agonist IB-MECA. As for the experimental part:
(§1) The functional activities of human A2A, A2B, A1 and A3 receptors were determined by quantification of cAMP, being the second messenger for adenosine receptors.
(§2) For human A1 and A3 receptors, recombinant CHO cells, expressing either A1 or A3-receptor, were used. As both receptors couple to Gi proteins, the assay protocol was adapted:
(§3) Cells were seeded into 384-well plates, forskolin, test compounds and agonists (CPA for A1- and IB-MECA for A3-receptor) were added. After 30 min incubation, HTRF reagents (cAMP dynamic 2, Cis Bio) were added and the cellular cAMP levels were determined using the ENVISION (Perkin Elmer) plate reader. Obtained raw data were normalized against the inhibitor control and the neural control (DMSO) and the normalized data were fitted using GeneData software.

The target of the next experiment is T2, human A2B receptor (Homo sapiens, UniProt P29275).
T2 construct: expressed in transfected cells; host or cells: HEK293
T2 sequence (P29275 1-332): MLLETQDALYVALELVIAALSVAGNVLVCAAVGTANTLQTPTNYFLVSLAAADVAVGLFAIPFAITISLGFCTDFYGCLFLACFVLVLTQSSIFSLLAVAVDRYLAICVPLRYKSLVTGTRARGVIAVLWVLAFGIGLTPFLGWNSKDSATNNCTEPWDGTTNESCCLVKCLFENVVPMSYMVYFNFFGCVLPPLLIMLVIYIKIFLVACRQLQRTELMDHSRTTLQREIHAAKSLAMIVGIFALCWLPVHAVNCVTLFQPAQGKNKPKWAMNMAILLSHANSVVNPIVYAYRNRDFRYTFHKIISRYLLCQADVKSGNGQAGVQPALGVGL
The experiment can be described thus: cAMP (HTRF) functional assay, recombinant HEK293 cells expressing human A2B receptor, agonist NECA. As for the experimental part:
as §1, §3
A general note: Time-resolved FRET reads energy transfer from a long-lived donor to a nearby acceptor.

A further experiment concerns the target T3, human A1 receptor (Homo sapiens, UniProt P30542).
T3 construct: expressed in transfected cells; host or cells: CHO
T3 sequence (P30542 1-326): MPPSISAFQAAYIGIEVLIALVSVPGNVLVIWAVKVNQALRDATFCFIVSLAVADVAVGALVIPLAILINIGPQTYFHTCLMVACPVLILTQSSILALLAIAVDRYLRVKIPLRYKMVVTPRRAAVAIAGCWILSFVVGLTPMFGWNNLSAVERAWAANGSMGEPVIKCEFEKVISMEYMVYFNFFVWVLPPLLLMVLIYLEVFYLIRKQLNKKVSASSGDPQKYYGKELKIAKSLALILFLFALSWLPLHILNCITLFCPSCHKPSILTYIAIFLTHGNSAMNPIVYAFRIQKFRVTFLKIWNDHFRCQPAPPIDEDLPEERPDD
In words: cAMP (HTRF) functional assay, recombinant CHO cells expressing human A1 receptor, forskolin + agonist CPA. Here is the method: as §1, §2, §3

For the next experiment, the target named is T4, human A2A receptor (Homo sapiens, UniProt P29274).
T4 construct: expressed in transfected cells; host or cells: HEK293
The experiment can be described thus: cAMP (HTRF) functional assay, recombinant HEK293 cells expressing human A2A receptor, agonist NECA. Here is the method:
as §1, §3

T4 sequence (P29274 whole entry): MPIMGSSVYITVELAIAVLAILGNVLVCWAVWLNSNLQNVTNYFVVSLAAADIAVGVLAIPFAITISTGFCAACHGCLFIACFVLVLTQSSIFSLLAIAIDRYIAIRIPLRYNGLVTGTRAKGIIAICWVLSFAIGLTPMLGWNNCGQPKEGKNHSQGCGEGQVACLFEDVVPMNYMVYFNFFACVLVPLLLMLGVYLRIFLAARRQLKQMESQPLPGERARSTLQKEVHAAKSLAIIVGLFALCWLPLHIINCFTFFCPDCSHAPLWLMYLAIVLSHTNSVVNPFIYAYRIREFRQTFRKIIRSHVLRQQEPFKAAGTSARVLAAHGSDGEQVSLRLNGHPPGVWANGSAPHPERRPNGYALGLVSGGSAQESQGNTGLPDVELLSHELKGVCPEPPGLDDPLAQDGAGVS

In the case of `COc1ncc(-c2ccccc2)c2sc(NC(=O)[C@H]3C[C@@H]3OC)nc12` (racemic) [compound 202, (1S,2S)-2-methoxy-N-{4-methoxy-7-phenyl-[1,3]thiazolo[4,5-c]pyridin-2-yl}cyclopropane-1-carboxamide], the IC50 was < 1 µM at human A3 receptor, < 0.1 µM on human A2B receptor, < 1 µM at human A1 receptor and < 0.1 µM at human A2A receptor.

Turning to `COCc1ccc(C(=O)Nc2nc3c(OC)ncc(N4CCOCC4)c3s2)cc1` [compound 3, 4-Methoxymethyl-N-(4-methoxy-7-morpholin-4-yl-thiazolo[4,5-c]pyridin-2-yl)-benzamide], the IC50 on human A3 receptor is < 1 µM; at human A2B receptor it was < 1 µM; on human A1 receptor, > 1 µM; at human A2A receptor, < 0.01 µM.

Turning to `COc1ncc(N2CCOCC2)c2sc(NC(=O)N3CCC(O)(Cc4ccccc4)CC3)nc12` [compound 7, 4-benzyl-4-hydroxy-N-[4-methoxy-7-(morpholin-4-yl)-[1,3]thiazolo[4,5-c]pyridin-2-yl]piperidine-1-carboxamide], the IC50 was > 1 µM at human A3 receptor, < 0.1 µM on human A2B receptor, < 1 µM on human A1 receptor and < 0.1 µM on human A2A receptor.

On to `COc1ncc(N2CCOCC2)c2sc(NC(=O)N3CCC4(CCOC4)C3)nc12` (stereo not shown) [compound 9, 2-Oxa-7-aza-spiro[4.4]nonane-7-carboxylic acid (4-methoxy-7-morpholin-4-yl-thiazolo[4,5-c]pyridin-2-yl)-amide], for which the half-maximal inhibitory concentration (IC50) on human A3 receptor was > 1 µM; on human A2B receptor it was < 1 µM; at human A1 receptor it was > 1 µM; at human A2A receptor it was < 0.01 µM.

Consider `COCc1ccc(C(=O)Nc2nc3c(OC)ncc(-c4cnn(C)c4)c3s2)cc1` [compound 14], for which the IC50 on human A3 receptor is < 1 µM; on human A2B receptor it was < 1 µM; on human A1 receptor, < 1 µM; at human A2A receptor it was < 0.01 µM.

For `COc1ncc(N2CCOCC2)c2sc(NC(=O)c3ccc(C(=O)N(C)C)cc3)nc12` [compound 15, N-(4-Methoxy-7-morpholin-4-yl-thiazolo[4,5-c]pyridin-2-yl)-N′,N′-dimethyl-terephthalamide], the IC50 at human A3 receptor is > 1 µM; on human A2B receptor, < 0.1 µM; on human A1 receptor, > 1 µM; at human A2A receptor it was < 0.01 µM.

On to `COc1ncc(N2CCOCC2)c2sc(NC(=O)N3CC[C@]4(CCOC4)C3)nc12` [compound 17, (5S)-N-[4-methoxy-7-(morpholin-4-yl)-[1,3]thiazolo[4,5-c]pyridin-2-yl]-2-oxa-7-azaspiro[4.4]nonane-7-carboxamide], for which the half-maximal inhibitory concentration (IC50) is > 1 µM on human A3 receptor, < 1 µM on human A2B receptor, > 1 µM on human A1 receptor and < 0.01 µM on human A2A receptor.

As for `COc1ncc(N2CCOCC2)c2sc(NC(=O)N3CC[C@@]4(CCOC4)C3)nc12` [compound 18, (5R)-N-[4-methoxy-7-(morpholin-4-yl)-[1,3]thiazolo[4,5-c]pyridin-2-yl]-2-oxa-7-azaspiro[4.4]nonane-7-carboxamide], the IC50 at human A3 receptor is > 1 µM; on human A2B receptor, < 1 µM; on human A1 receptor, > 1 µM; at human A2A receptor, < 0.01 µM.

Take `COc1ncc(-c2cnn(C)c2)c2sc(NC(=O)N3CCC(C)(O)CC3)nc12` [compound 21, 4-Hydroxy-4-methyl-piperidine-1-carboxylic acid [4-methoxy-7-(1-methyl-1H-pyrazol-4-yl)-thiazolo[4,5-c]pyridin-2-yl]-amide]: the concentration for half-maximal inhibition (IC50) at human A3 receptor was < 1 µM; at human A2B receptor it was < 0.1 µM; at human A1 receptor it was < 1 µM; at human A2A receptor, < 0.01 µM.

Consider `COCc1ccc(C(=O)Nc2nc3c(OC)ncc(C4CCOCC4)c3s2)cc1` [compound 23, 4-Methoxymethyl-N-[4-methoxy-7-(tetrahydro-pyran-4-yl)-thiazolo[4,5-c]pyridin-2-yl]-benzamide], for which the IC50 was > 1 µM at human A3 receptor, < 0.1 µM at human A2B receptor, < 1 µM at human A1 receptor and < 0.01 µM at human A2A receptor.

Turning to `COCCn1cc(C(=O)Nc2nc3c(OC)ncc(C4CCOCC4)c3s2)cn1` [compound 29, 1-(2-Methoxy-ethyl)-1H-pyrazole-4-carboxylic acid [4-methoxy-7-(tetrahydro-pyran-4-yl)-thiazolo[4,5-c]pyridin-2-yl]-2-amide], the IC50 at human A3 receptor is < 1 µM; on human A2B receptor, < 0.1 µM; at human A1 receptor, < 1 µM; on human A2A receptor it was < 0.01 µM.

For `COc1ncc(C2CCOCC2)c2sc(NC(=O)N3CCC(C)(O)CC3)nc12` [compound 30, 4-Hydroxy-4-methyl-piperidine-1-carboxylic acid [4-methoxy-7-(tetrahydro-pyran-4-yl)-thiazolo[4,5-c]pyridin-2-yl]-amide], the IC50 is > 1 µM on human A3 receptor, < 0.1 µM on human A2B receptor, < 1 µM at human A1 receptor and < 0.01 µM on human A2A receptor.

Turning to `COc1ncc(-c2ccccc2)c2sc(NC(=O)N3CCC4(CCCOC4)C3)nc12` (stereo not shown) [compound 52, 7-Oxa-2-aza-spiro[4.5]decane-2-carboxylic acid (4-methoxy-7-phenyl-thiazolo[4,5-c]pyridin-2-yl)-amide], the IC50 at human A3 receptor was > 1 µM; at human A2B receptor, < 0.1 µM; on human A1 receptor, < 1 µM; at human A2A receptor, < 0.01 µM.

As to `COc1ncc(-c2ccccc2)c2sc(NC(=O)N3CCC4(CCOCC4)C3)nc12` [compound 53, 8-Oxa-2-aza-spiro[4.5]decane-2-carboxylic acid (4-methoxy-7-phenyl-thiazolo[4,5-c]pyridin-2-yl)-amide], the IC50 at human A3 receptor was > 1 µM; at human A2B receptor, < 0.1 µM; at human A1 receptor, > 1 µM; on human A2A receptor it was < 0.01 µM.

Take `COc1ncc(-c2ccccc2)c2sc(NC(=O)N3CCC4(CCOC4)C3)nc12` (stereo not shown) [compound 54, 2-Oxa-7-aza-spiro[4.4]nonane-7-carboxylic acid (4-methoxy-7-phenyl-thiazolo[4,5-c]pyridin-2-yl)-amide]: the half-inhibitory concentration (IC50) on human A3 receptor was > 1 µM; at human A2B receptor, < 0.1 µM; at human A1 receptor, < 1 µM; at human A2A receptor it was < 0.01 µM.

Consider `COc1ncc(-c2ccccc2)c2sc(NC(=O)c3ccc(C(=O)N(C)C)cc3)nc12` [compound 58, N-(4-Methoxy-7-phenyl-thiazolo[4,5-c]pyridin-2-yl)-N′,N′-dimethyl-terephthalamide], for which the IC50 is > 1 µM on human A3 receptor, < 0.01 µM at human A2B receptor, < 1 µM on human A1 receptor and < 0.01 µM at human A2A receptor.

In the case of `COc1nc(F)c(N2CCOCC2)c2sc(NC(=O)c3ccc(N4C(=O)CCC4=O)cc3)nc12` [compound 226, 4-(2,5-Dioxo-pyrrolidin-1-yl)-N-(6-fluoro-4-methoxy-7-morpholin-4-yl-thiazolo[4,5-c]pyridin-2-yl)-benzamide], the results for the IC50 at human A3 receptor, on human A2B receptor and on human A2A receptor were > 1 µM, < 0.01 µM and < 0.01 µM, respectively.

Regarding `COc1ncc(-c2ccccc2)c2sc(NC(=O)c3ccc(C(=O)N(C)CCO)cc3)nc12` [compound 227, N-(2-Hydroxy-ethyl)-N′-(4-methoxy-7-phenyl-thiazolo[4,5-c]pyridin-2-yl)-N-methyl-terephthalamide], the IC50 was > 1 µM on human A3 receptor, < 0.01 µM on human A2B receptor and < 0.01 µM on human A2A receptor.

Take `COc1ncc(-c2ccccc2)c2sc(NC(=O)c3ccc(C(=O)NCCO)cc3)nc12` [compound 228, N-(2-Hydroxy-ethyl)-N′-(4-methoxy-7-phenyl-thiazolo[4,5-c]pyridin-2-yl)-terephthalamide]: the IC50 on human A3 receptor is < 1 µM; on human A2B receptor, < 0.1 µM; on human A2A receptor, < 0.01 µM.

With `COc1ncc(-c2ccccc2)c2sc(NC(=O)c3ccc(C(=O)NCCN(C)C)cc3)nc12` [compound 230, N-(2-Dimethylamino-ethyl)-N′-(4-methoxy-7-phenyl-thiazolo[4,5-c]pyridin-2-yl)-terephthalamide], the IC50 on human A3 receptor is < 1 µM; on human A2B receptor it was < 0.1 µM; on human A2A receptor, < 0.01 µM.

As usually defined, the IC50 is the concentration that inhibits the measured activity by half.
